Consider 4 compounds from publication PMC11144398, “Crizotinib inhibits the metabolism of tramadol by non-competitive suppressing the activities of CYP2D1 and CYP3A2” (PeerJ, 2024).

A short description of series [1]: Pharmacokinetics of tramadol and O-desmethyl tramadol in SD rats with or without crizotinib. The settings on record: male, Sprague-Dawley, rat, serum, po, 20 mg/kg; for CL/F: CLz/F; for Vd/F: Vz/F; for half-life: t1/2z. The text has this: Ultra-performance liquid chromatography-tandem mass spectrometry (UPLC-MS/MS) was utilized to measure the concentration of both tramadol and O-desmethyl tramadol. Separation was achieved using a Waters Acquity UPLC BEH C18 column, with dimensions of 2.1 mm × 50 mm and 1.7-µm particle size (Waters Corp., Milford, MA, USA), and quantitation was completed using a Waters XEVO TQD triple quadruple mass spectrometer. The mobile phase was composed of 0.1% formic acid (A) and ACN (B), and the gradient elution was carried out with a flow rate of 0.4 mL/min, following the procedure: 90–10% A (0–1.4 min), 10–90% A (1.4–1.5 min), and 90% A (1.5–2.0 min). Positive mode was used to detect the analytes with the following transitions: m/z 264.2 →58.0, m/z 250.2 →58.2, and m/z 285.0 →154.0 for tramadol, O-desmethyl tramadol, and diazepam (used as an internal standard, IS), respectively. The collision energy was 20 V for tramadol and O-desmethyl tramadol, and 25 V for diazepam. The standard for tramadol and O-desmethyl tramadol were dissolved in a small amount of DMSO (the concentration was 1 mg/mL) then diluted with acetonitrile (the final concentration was 1 ng/mL–1,000 ng/mL). Diazepam was diluted with methanol gradually to 500 ng/mL).
SD male rats (280 ± 15 g) were purchased from the Shanghai Animal Experimental Center. Before the experiment, the rats were kept in the animal room for two weeks with adequate water and food in order to adapt to the new environment. The room temperature was kept at 20–25 °C and the humidity was kept at 50%–65%. The change period of light and dark conditions was 12 h, which simulates the change of day and night. All animal experiments were approved by the Ethics Committee of Wenzhou Medical University (Approval number: xmsq2022-0621).
Generally speaking, only when at least five or more animals are involved in the experiment can the results be convincing. Thus, twenty SD rats were randomly divided into four groups with five animals per group: group A received a single dose of 20 mg/kg of tramadol; group B received a single dose of 45 mg/kg of crizotinib and 20 mg/kg of tramadol; group C received multiple doses of 0.5% carboxymethylcellulose sodium salt (CMC-Na) for 7 days and a single dose of 20 mg/kg of tramadol; and group D received multiple doses of 45 mg/kg of crizotinib for 7 days and a single dose of 20 mg/kg of tramadol. Prior to the experiment, all rats were fasted for 12 h but allowed free access to water. Once the experiment began, 0.5% CMC-Na and crizotinib were administered to groups C and D for 7 days, respectively, then to groups A and B on the last day of the experiment. After 30 min, all rats were orally administered 20 mg/kg of tramadol. Blood samples were collected from the tail vein at 5 min, 15 min, 30 min, 1 h, 2 h, 3 h, 4 h, 6 h, 8 h, 10 h, 12 h, and 24 h following tramadol administration. […] The samples were centrifuged at 2400 × g for 10 min to obtain serum. Each 50 µL serum was mixed with 150 µL ACN and 20 µL IS (500 ng/mL). After vortexing for 2 min and centrifugation at 16200 × g for 10 min at 4 °C, the supernatant was obtained, then we used UPLC-MS/MS analysis to detect the concentration of tramadol and O-desmethyl tramadol. After the experiment, all the animals were euthanized by 5% isoflurane inhalation anesthesia.
The Michaelis–Menten, IC50, and Lineweaver-Burk plots were generated using GraphPad Prism 6.0 software (GraphPad Software, Boston, MA, USA) with corresponding values for Km, IC50, and Ki (inhibition constant).

In series [2] the test system is opioid receptors. Set-up: method as in earlier work. The settings on record: ref Allegaert et al., 2015, De La Gastine et al., 2022, Gillen et al., 2000, Gong et al., 2014; cited from earlier work.
Series [3] relates to tramadol metabolism (O-desmethyl tramadol production) in rat liver microsomes. The series can be described thus: Liver microsomal incubation assay: inhibition of tramadol metabolism (O-desmethyl tramadol production) in RLM. It counts as in vitro ADME. The following applies: rat, pH 7.4, inhibitory rate on tramadol metabolism (production of O-desmethyl tramadol). As for the experimental part: All the substance meet the requirements for analysis.
To obtain the Michaelis kinetic parameters of tramadol in RLM and HLM, a 200 µL incubation system was established containing 2 µL RLM or HLM (0.2 mg/mL), 186 µL 1xPBS buffer (pH = 7.4), 2 µL tramadol (10–500 µM), and 10 µL NADPH (1 mM). The mixture was pre-incubated for 5 min without NADPH in a water bath shaking at 37 °C. Then, NADPH was added to initiate the reaction, and the mixture was incubated for another 30 min. The reaction was terminated by adding 400 µL of cold ACN and 20 µL of IS (500 ng/mL).
For drug-interaction screening, 100 µM of each drug (1.6 µL) was added to the system, and added PBS to the final volume of 200 uL. Tramadol concentration was set at 60 µM according to the Km.
To determine the half-maximal inhibitory concentration (IC50), the concentration of crizotinib was set at 0.01, 0.1, 1, 10, 25, 50, and 100 µM, while the concentration of tramadol was constant at 60 µM in RLM or 100 µM in HLM (according to Km).
All data were presented as mean ± SD (standard deviation).

Setting [4] is: Group A: single oral 20 mg/kg tramadol alone.
Setting [5] is: Group B: 20 mg/kg tramadol with crizotinib 45 mg/kg single dose.
The mark [6] stands for this setting: Group C: 0.5% CMC-Na for 7 days, then single 20 mg/kg tramadol.
Where [7] appears, read: Group D: crizotinib 45 mg/kg for 7 days, then single 20 mg/kg tramadol.

The structures appear in SMILES notation.

`CN(C)C[C@H]1CCCC[C@]1(O)c1cccc(O)c1` [O-desmethyl tramadol]: in series [1] (setting [4]), the AUC(0-t) (as a rule, the area under the concentration-time curve up to a stated or last time point) is 934 ± 101 ng·h/mL; the total exposure AUC(0-inf) – broadly, the area under the concentration-time curve extrapolated to infinity – is 937 ± 101 ng·h/mL; the apparent clearance (CL/F) (as a rule, clearance divided by bioavailability, as obtained after extravascular dosing) is 360 mL/min/kg; the highest concentration (Cmax) (in general, the maximum level reached in the sampled fluid or tissue) is 229 ± 56.1 ng/mL. In addition, in series [1] (setting [4]), the Tmax – broadly, the time from dosing to the highest level – is 0.8 ± 0.27 h; the Vd/F (usually the volume of distribution divided by bioavailability) was 91.3 ± 12 L/kg; the half-life (as a rule, the time in which the quantity being followed falls by half) is 2.93 ± 0.09 h. In series [1] (setting [5]), this compound gave an AUC(0-t) of 928 ± 145 ng·h/mL, an AUC(0-inf) of 981 ± 125 ng·h/mL, a CL/F of 344 mL/min/kg and a Cmax of 172 ± 72.1 ng/mL. In addition, in series [1] (setting [5]), the Tmax is 0.7 ± 0.27 h, the Vd/F was determined as 170 ± 112 L/kg and the half-life is 5.68 ± 3.69 h. For the same compound, in series [1] (setting [6]), the area under the curve AUC(0-t) amounted to 1170 ng·h/mL, the AUC(0-inf) was 1180 ng·h/mL, the apparent clearance (CL/F) is 288 mL/min/kg and the Cmax came out at 292 ± 55.1 ng/mL. Moreover, in series [1] (setting [6]), the Tmax was determined as 1.2 ± 0.45 h, the Vd/F amounted to 72.5 ± 25.4 L/kg and the half-life is 2.86 ± 0.71 h. Besides, in series [1] (setting [7]), the area under the curve AUC(0-t) was determined as 1230 ng·h/mL, the AUC(0-inf) is 1250 ng·h/mL, the CL/F was 268 mL/min/kg and the peak concentration (Cmax) was 182 ± 65.8 ng/mL. In series [1] (setting [7]), the time to peak (Tmax) was 0.9 ± 0.65 h, the Vd/F amounted to 94.7 ± 26.4 L/kg and the half-life was 4.06 ± 0.91 h. Besides, the “affinity relative to tramadol” value in series [2] is “more than 700 times”.
Take `COc1cccc(C2(O)CCCCC2CN(C)C)c1` (centres unmarked) [Tramadol, tramadol]: in series [1] (setting [4]), the AUC(0-t) came to 770 ± 169 ng·h/mL, the total exposure AUC(0-inf) is 786 ± 165 ng·h/mL, the CL/F is 440 mL/min/kg and the concentration peaked (Cmax) at 202 ± 82.7 ng/mL. In addition, in series [1] (setting [4]), the time to peak (Tmax) is 0.5 h, the Vd/F amounted to 168 ± 88.2 L/kg and the half-life is 4.22 ± 1.68 h. In series [1] (setting [5]), this compound gave an exposure AUC(0-t) of 1120 ng·h/mL, an area under the curve AUC(0-inf) of 1220 ng·h/mL, an apparent clearance (CL/F) of 298 mL/min/kg and a Cmax of 245 ± 38.3 ng/mL. Moreover, in series [1] (setting [5]), the time to peak (Tmax) is 0.6 ± 0.22 h, the Vd/F is 154 ± 96.5 L/kg and the half-life is 6.91 ± 5.73 h. In series [1] (setting [6]), this compound gave an AUC(0-t) of 777 ± 233 ng·h/mL, an AUC(0-inf) of 790 ± 226 ng·h/mL, a CL/F of 459 mL/min/kg and a Cmax of 246 ± 57.6 ng/mL. In series [1] (setting [6]), the Tmax amounted to 1.6 ± 0.55 h, the Vd/F amounted to 307 ± 309 L/kg and the half-life was 6.69 ± 5.14 h. For the same compound, in series [1] (setting [7]), the exposure AUC(0-t) is 1650 ng·h/mL, the AUC(0-inf) was 1650 ng·h/mL, the apparent clearance CL/F is 214 mL/min/kg and the concentration peaked (Cmax) at 294 ± 85.2 ng/mL. For the same compound, in series [1] (setting [7]), the Tmax came out at 0.9 ± 0.65 h, the Vd/F came to 51.4 ± 19.1 L/kg and the half-life was 2.74 ± 0.56 h.
For the compound `CNC(=O)c1cc(Oc2ccc(NC(=O)Nc3ccc(Cl)c(C(F)(F)F)c3)c(F)c2)ccn1` [regorafenib], the inhibition – broadly, the relative decrease from the control value, in per cent – at 30 min, 100 µM in series [3] was found to be 83.7%.
The same measure, in the same setting: in the case of `CNC(=O)c1cc(Oc2ccc(NC(=O)Nc3ccc(Cl)c(C(F)(F)F)c3)cc2)ccn1` [sorafenib] it was 96.7%.
